Reference: PubChem BioAssay (NCI)
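Values below derive from 48-hour exposures of cells grown in 96-well plates, with endpoints linearly interpolated between the two concentrations bracketing the appropriate inhibition level. GI50 = concentration required for 50% inhibition of growth. TGI denotes the concentration required for complete inhibition of growth.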 *1 amine or outer side, *2 acyl side, *3 side chain or, on linkers, in order; H or OH if unused. Where a SMILES comes first, the peptide text is derived from it. Bridges are numbered along the chain shown (N, C = ends). Roman numbers before positions name the chains, in order. [ ]: non-standard residue; d: D form. Actinocin(9to1) = Cc1c2oc3c(C)ccc(C(=O)[*:1])c3nc-2c(C(=O)[*:2])c(N)c1=O; NMeV = CN[CH](C(=O)O)C(C)C; Sar = CNCC(=O)O

Columns and labels:
Assay in all cases: NCI tumour cell line growth inhibition, 48 h
SR leukemia = system: SR leukemia
KM12 colon = system: KM12 colon
HCT-116 colon = system: HCT-116 colon
SW-620 colon = system: SW-620 colon
NCI-H226 lung = system: NCI-H226 lung
TK-10 renal = system: TK-10 renal
PC-3 prostate = system: PC-3 prostate
SF-268 CNS = system: SF-268 CNS
SF-295 CNS = system: SF-295 CNS
NCI/ADR-RES ovarian = system: NCI/ADR-RES ovarian
MALME-3M melanoma = system: MALME-3M melanoma
COLO 205 colon = system: COLO 205 colon
NCI-H460 lung = system: NCI-H460 lung
T-47D breast = system: T-47D breast
SNB-19 CNS = system: SNB-19 CNS
SK-MEL-2 melanoma = system: SK-MEL-2 melanoma
HT29 colon = system: HT29 colon
OVCAR-5 ovarian = system: OVCAR-5 ovarian
SK-MEL-28 melanoma = system: SK-MEL-28 melanoma
LOX IMVI melanoma = system: LOX IMVI melanoma
SK-MEL-5 melanoma = system: SK-MEL-5 melanoma
HOP-62 NSCLC = system: HOP-62 NSCLC
HS 578T breast = system: HS 578T breast
SN12C renal = system: SN12C renal
SF-539 CNS = system: SF-539 CNS
NCI-H23 lung = system: NCI-H23 lung
OVCAR-4 ovarian = system: OVCAR-4 ovarian
MOLT-4 leukemia = system: MOLT-4 leukemia
DU-145 prostate = system: DU-145 prostate
RPMI-8226 leukemia = system: RPMI-8226 leukemia
SK-OV-3 ovarian = system: SK-OV-3 ovarian
OVCAR-3 ovarian = system: OVCAR-3 ovarian
SNB-75 CNS = system: SNB-75 CNS
HL-60(TB) leukemia = system: HL-60(TB) leukemia
A498 renal = system: A498 renal
K-562 leukemia = system: K-562 leukemia
CAKI-1 renal = system: CAKI-1 renal
BT-549 breast = system: BT-549 breast
UO-31 renal = system: UO-31 renal
CCRF-CEM leukemia = system: CCRF-CEM leukemia
MDA-MB-231 breast = system: MDA-MB-231 breast
RXF 393 renal = system: RXF 393 renal
MCF7 breast = system: MCF7 breast
ACHN renal = system: ACHN renal
NCI-H522 lung = system: NCI-H522 lung
M14 melanoma = system: M14 melanoma
HOP-92 NSCLC = system: HOP-92 NSCLC
IGROV1 ovarian = system: IGROV1 ovarian
MDA-MB-435 = system: MDA-MB-435
HCT-15 colon = system: HCT-15 colon
786-0 renal = system: 786-0 renal
UACC-257 melanoma = system: UACC-257 melanoma
EKVX NSCLC = system: EKVX NSCLC
U251 CNS = system: U251 CNS
UACC-62 melanoma = system: UACC-62 melanoma
OVCAR-8 ovarian = system: OVCAR-8 ovarian

With `Cc1c2oc3c(C)ccc(C(=O)OC(C)C4NC(=O)C(C(C)C)N(C)C(=O)CN(C)C(=O)C5CCCN5C(=O)C(C(C)C)NC4=O)c3nc-2c(C(=O)OC(C)C2NC(=O)C(C(C)C)N(C)C(=O)CN(C)C(=O)C3CCCN3C(=O)C(C(C)C)NC2=O)c(N)c1=O` (stereo not drawn) (I: cyclo([Sar][NMeV]TVP) / II: cyclo([Sar][NMeV]TVP); linker I:3-II:3 via Actinocin(9to1); configuration not given here) the GI50 (SR leukemia) was under 10 nM, the TGI (SR leukemia) was over 100000 nM and the GI50 (KM12 colon) was under 10 nM. The TGI (KM12 colon) was 793 nM, the GI50 (HCT-116 colon) was under 10 nM and the TGI (HCT-116 colon) was over 100000 nM. The GI50 (SW-620 colon) was under 10 nM, the TGI (SW-620 colon) was 17700 nM and the GI50 (NCI-H226 lung) was under 10 nM. The TGI (NCI-H226 lung) was 33.5 nM, the GI50 (TK-10 renal) was under 12.7 nM and the TGI (TK-10 renal) was 894 nM. It also gave a GI50 (PC-3 prostate) of under 10 nM, a TGI (PC-3 prostate) of 19700 nM and a GI50 (SF-268 CNS) of under 10 nM. For the same compound, the TGI (SF-268 CNS) was 913 nM, the GI50 (SF-295 CNS) was under 10 nM and the TGI (SF-295 CNS) was 1530 nM. The GI50 (NCI/ADR-RES ovarian) was 541 nM, the TGI (NCI/ADR-RES ovarian) was over 100000 nM and the GI50 (MALME-3M melanoma) was under 10 nM. The TGI (MALME-3M melanoma) was 28.2 nM, the GI50 (COLO 205 colon) was under 10 nM and the TGI (COLO 205 colon) was 16.3 nM. The GI50 (NCI-H460 lung) was under 10 nM, the TGI (NCI-H460 lung) was over 32700 nM and the GI50 (T-47D breast) was under 10 nM. For the same compound, the TGI (T-47D breast) was over 100000 nM, the GI50 (SNB-19 CNS) was under 10 nM and the TGI (SNB-19 CNS) was over 55500 nM. For the same compound, the GI50 (SK-MEL-2 melanoma) was under 10 nM, the TGI (SK-MEL-2 melanoma) was under 15.2 nM and the GI50 (HT29 colon) was under 10 nM. The GI50 (OVCAR-5 ovarian) was 11.4 nM, the TGI (OVCAR-5 ovarian) was 21600 nM and the GI50 (SK-MEL-28 melanoma) was under 10 nM. It also gave a TGI (SK-MEL-28 melanoma) of 30.7 nM, a GI50 (LOX IMVI melanoma) of under 10 nM and a TGI (LOX IMVI melanoma) of over 35000 nM. The GI50 (SK-MEL-5 melanoma) was under 10 nM, the TGI (SK-MEL-5 melanoma) was 16.9 nM and the GI50 (HOP-62 NSCLC) was under 10 nM. For the same compound, the TGI (HOP-62 NSCLC) was 88.3 nM, the GI50 (HS 578T breast) was 19.2 nM and the GI50 (SN12C renal) was under 10 nM. It also gave a TGI (SN12C renal) of over 100000 nM, a GI50 (SF-539 CNS) of under 10 nM and a TGI (SF-539 CNS) of 65.6 nM. For the same compound, the GI50 (NCI-H23 lung) was under 10 nM, the TGI (NCI-H23 lung) was 80.2 nM and the GI50 (OVCAR-4 ovarian) was 14 nM. For the same compound, the TGI (OVCAR-4 ovarian) was 2030 nM, the GI50 (MOLT-4 leukemia) was under 10 nM and the GI50 (DU-145 prostate) was under 10.7 nM. For the same compound, the TGI (DU-145 prostate) was over 30700 nM, the GI50 (RPMI-8226 leukemia) was under 10 nM and the TGI (RPMI-8226 leukemia) was 58.2 nM. For the same compound, the GI50 (SK-OV-3 ovarian) was 19.2 nM, the TGI (SK-OV-3 ovarian) was over 100000 nM and the GI50 (OVCAR-3 ovarian) was under 10 nM. For the same compound, the TGI (OVCAR-3 ovarian) was 32 nM, the GI50 (SNB-75 CNS) was under 10.9 nM and the TGI (SNB-75 CNS) was 39 nM. It also gave a GI50 (HL-60(TB) leukemia) of under 16.5 nM, a TGI (HL-60(TB) leukemia) of 212 nM and a GI50 (A498 renal) of under 10.7 nM. For the same compound, the TGI (A498 renal) was 29.4 nM, the GI50 (K-562 leukemia) was under 10 nM and the TGI (K-562 leukemia) was over 100000 nM. For the same compound, the GI50 (CAKI-1 renal) was 59.6 nM, the GI50 (BT-549 breast) was under 10 nM and the TGI (BT-549 breast) was 36.3 nM. The GI50 (UO-31 renal) was 30.2 nM, the TGI (UO-31 renal) was 206 nM and the GI50 (CCRF-CEM leukemia) was under 11.1 nM. For the same compound, the TGI (CCRF-CEM leukemia) was over 66300 nM, the GI50 (MDA-MB-231 breast) was 15.2 nM and the GI50 (RXF 393 renal) was under 10 nM. For the same compound, the TGI (RXF 393 renal) was 18.5 nM, the GI50 (MCF7 breast) was under 10 nM and the TGI (MCF7 breast) was over 100000 nM. It also gave a GI50 (ACHN renal) of under 10 nM, a TGI (ACHN renal) of 4390 nM and a GI50 (NCI-H522 lung) of under 10 nM. The TGI (NCI-H522 lung) was under 11.6 nM, the GI50 (M14 melanoma) was 11.7 nM and the TGI (M14 melanoma) was 51.7 nM. It also gave a GI50 (HOP-92 NSCLC) of under 10 nM, a TGI (HOP-92 NSCLC) of 98.9 nM and a GI50 (IGROV1 ovarian) of under 10 nM. The TGI (IGROV1 ovarian) was 5900 nM, the GI50 (MDA-MB-435) was under 10 nM and the TGI (MDA-MB-435) was 24.7 nM. It also gave a GI50 (HCT-15 colon) of 39.6 nM, a TGI (HCT-15 colon) of over 100000 nM and a GI50 (786-0 renal) of under 10 nM. The TGI (786-0 renal) was over 100000 nM, the GI50 (UACC-257 melanoma) was under 10 nM and the GI50 (EKVX NSCLC) was 22 nM. It also gave a GI50 (U251 CNS) of under 10 nM, a GI50 (UACC-62 melanoma) of under 10 nM and a TGI (UACC-62 melanoma) of 12.5 nM. For the same compound, the GI50 (OVCAR-8 ovarian) was under 10 nM.
